This is an account of results in US20070207223A1, “Means for improving cardiovascular health” (priority 2006, published 2007).

The conditions of data set [1]: regular dietary intake; cited from earlier work.
Data set [2] is described as follows: RBC omega-3 fatty acid content, dietary study in beagle dogs. The format is in vivo. The procedure: (§1) The test article, SDA, was administered in the diet once daily, 7 days per week, for up to 90 days to three groups (Groups 1-3) of male beagle dogs. The reference article, eicosapentaenoic acid (EPA), was administered to Group 4 on the same dosing regimen. Both SDA and EPA were supplied as ethyl esters. The control article, food grade high oleic sunflower oil (SFO), was administered to Group 5 on the same dosing regimen. SFO was also added to food of groups 1 through 4 so that all animals received a similar volume of oil per kg body wt. A dietary supplement, vitamin E, was added to all diets. Dosage levels were 21.4, 64.2 and 192.9 mg/kg/day SDA, 42.9 mg/kg/day EPA and were calculated for each animal based on body weight for Groups 1, 2, 3 and 4, respectively. Each group consisted of 15 males. Five animals/group were scheduled for each interim necropsy (study weeks 4 and 8) and the primary necropsy at the end of the 12-week treatment period. In addition, five animals were euthanized prior to randomization and test article administration to establish baseline levels of fatty acids (pretest necropsy).
(§2) The animals were observed twice daily for mortality and moribundity. Clinical examinations were performed daily, and detailed physical examinations were performed weekly. Individual body weights were recorded weekly. Food consumption was recorded daily and reported weekly. Blood samples for analysis of fatty acids were collected from five dogs scheduled for the pretest necropsy and from all surviving dogs during study weeks 2, 4, 8 and 12. All animals were euthanized, and in addition to liver and kidney sections, two samples of heart tissue were collected, one set was analyzed for fatty acid analysis and the other sample was retained for microscopic analysis at the scheduled necropsies. Sections from the heart, liver and kidney were examined microscopically from five animals during pretest and from 5 animals/group (Groups 3-5 only) at the study week 12 necropsy.
Blood samples were collected from the 5 dogs selected for the pretest necropsy and from all surviving dogs at study weeks 2, 4, 8 and 12. The samples were collected from the dog's jugular vein into tubes containing EDTA prior to the feeding/dosing regimen. The red blood cells (RBC) were separated from the plasma by centrifugation at 1500× for approximately 20 minutes at 4° C. The plasma was transferred to polypropylene tubes and stored at approximately −70° C. for future analysis. The buffy coat was removed from the packed RBCs, and the RBCs were divided approximately equally into two tubes.
(§3) Tissue preparation, lipid extraction and analysis were conducted according to a conventional protocol. Briefly, heart tissues were first lyophilized overnight, and then pulverized by grinding between two ground glass slides. The ground tissue was suspended in saline and subjected to 10-15 seconds of sonication. Lipids were extracted with methanol and methylene chloride, and the solvent evaporated under nitrogen. Thawed RBCs were extracted with isopropanol and hexane. After centrifugation of the stroma, the solvent was transferred and evaporated under nitrogen. Phospholipids extracted from heart and RBC samples were methylated with BF3, at 100° C. for 10 minutes. These conditions transmethylate glycerophospholipid FAs but not sphingolipid FAs. After heating, all samples were extracted with hexane and water. The hexane layer was removed, dried under nitrogen, and the FA methyl esters reconstituted in hexane for analysis by flame ionization gas chromatography. FAs were identified by comparison with known standards, and FA compositions were reported as weight percent of total FA.

Data set [3] is described as follows: Heart tissue omega-3 fatty acid content, dietary study in beagle dogs. The format is in vivo. Here is the method: as §1, §2, §3
Animals were euthanized by an intravenous injection of sodium pentobarbital followed by exsanguinations. Two samples of approximately 200 mg of heart tissue from the left ventricle were collected, rinsed in chilled saline, wrapped in aluminum foil, flash frozen in liquid nitrogen, and stored at approximately −70° C. The samples were analyzed for pathologic abnormalities.

For data set [4] the following is noted: dietary supplementation, human diet; phospholipid fractions; cited from earlier work.
For data set [5] the following is noted: dog, in vivo. Here is the method: as §1, with “Five animals/group were scheduled for each interim necropsy (study weeks 4 and 8) and the primary necropsy at the end of the 12-week treatment period. In addition, five animals were euthanized prior to randomization and test article administration to establish baseline levels of fatty acids (pretest necropsy).” left out
The animals were observed twice daily for mortality and moribundity. […] Individual body weights were recorded weekly. Food consumption was recorded daily and reported weekly. […] All animals were euthanized, and in addition to liver and kidney sections, two samples of heart tissue were collected, one set was analyzed for fatty acid analysis and the other sample was retained for microscopic analysis at the scheduled necropsies. […]
Animals were euthanized by an intravenous injection of sodium pentobarbital followed by exsanguinations. […] The samples were analyzed for pathologic abnormalities. […]

The structures appear in SMILES notation. “Also recorded” adds a separate entry of the source.

Take `CC/C=C\C/C=C\C/C=C\CCCCCCCC(=O)O` [ALA, α-linolenic acid]: the “Tissue concentrations of EPA and DHA” value in data set [1] was “proven ineffective in raising the tissue concentrations of EPA and DHA”.

With `CC/C=C\C/C=C\C/C=C\C/C=C\C/C=C\CCCC(=O)O` [EPA, eicosapentaenoic acid, reference compound], the “RBC omega-3 fatty acid content relative to SFO-treated dogs (negative control)” value in data set [2] (42.9 mg/kg/day EPA in diet, between study weeks 2 and 12) is 3-10 fold. The “Heart tissue omega-3 fatty acid content relative to sunflower oil-treated dogs (negative control)” value in data set [3] (42.9 mg/kg/day EPA in diet, between study weeks 4 and 12) is recorded as 3-5 fold.

`CC/C=C\C/C=C\C/C=C\C/C=C\CCCCC(=O)O` [SDA, Stearidonic acid]: the “Concentrations of EPA and DPA in erythrocytes and plasma” value in data set [4] was “increase the concentrations of EPA and DPA; also recorded: effectively converted into EPA and DPA”. Further, in data set [5], the “Microscopic changes to heart, liver and kidney tissues” value is given as “did not cause any significant microscopic changes”; the “Microscopic findings (heart, liver, kidney)” value is recorded as “no microscopic findings attributed to test article administration”. The “Total omega-3 fatty acid content (RBC) over pretreatment levels” value in data set [2] (21.4 mg/kg/day SDA, as early as study week 2) is reported as “overall increase”. For the same compound, the “Time of peak of total omega-3 fatty acid content (RBC)” value in data set [2] (21.4 mg/kg/day SDA, decreasing thereafter) is on record as “approximately 4 weeks”. The “Total omega-3 fatty acid content (RBC) over pretreatment” value in data set [2] (192.9 mg/kg/day SDA (Group 3), elevated from study week 2 through 12 weeks) was “approximately 2 fold”. The “Overall increase in omega-3 fatty acid content (RBC) over time compared with the EPA group” value in data set [2] (192.9 mg/kg/day SDA vs 42.9 mg/kg/day EPA, slightly lower) is listed as “comparable to the increase seen in the 42.9 mg/kg/day EPA group”. Further, the “Omega-3 fatty acid content in red blood cells (RBC)” value in data set [2] (SDA 21.4, 64.2 and 192.9 mg/kg/day in diet, study weeks 2, 4, 8 and 12) is given as “increased in a dose-dependent manner”. The “Heart omega-3 fatty acid content over pretreatment levels” value in data set [3] (21.4 mg/kg/day SDA, study week 4) is on record as “negligible increase”. In addition, the “Heart omega-3 fatty acid content, peak over pretreatment levels” value in data set [3] (21.4 mg/kg/day SDA, study week 8) is recorded as “approximately 1.5 fold”. Further, the “Heart omega-3 fatty acid content over pretreatment levels” value in data set [3] (192.9 mg/kg/day SDA, study week 12) is reported as “approximately 3 fold”. Further, the “Omega-3 fatty acid content in the heart tissue” value in data set [3] (SDA 21.4, 64.2 and 192.9 mg/kg/day in diet, study weeks 4, 8 and 12) is reported as “increased in a dose-dependent manner”. For the same compound, in data set [3] (SDA via the diet daily for 12 consecutive weeks, male beagle dogs), the “Conversion into EPA and DPA and incorporation into cardiac and red blood cell membranes” value was “effectively converted into EPA and DPA”.
